{
  "source": "patent US20100152137A1",
  "about": "“Alkylphospholipids as active agents for prevention of plant pathogens” (KTB-Tumorforschungs GMBH, priority 2006, published 2010)",
  "key": {"Plasmopara viticola [1]": {"tested_on": "Plasmopara viticola", "test": "Downy mildew control on intact greenhouse plants", "assay_type": "in vivo, Plasmopara viticola on Vitis vinifera cv. Müller-Thurgau", "settings": "for II (%) per REP / II (%) per variant: infestation intensity; for RW II IF (%): relation value for infestation frequency vs control; for RW II II (%): relation value for infestation intensity vs control", "experimental": "Greenhouse plants of the variety Müller-Thurgau (Vitis vinifera cv. Müller-Thurgau) served as the starting material. At least three plants each in the ten leaf stage were employed per test solution. HePC was applied (sprayed with the application device System Schachtner) in concentrations of 0.01%, 0.05% and 0.1%. In an additional experiment with 0.01% HePC, the same concentration of HePC (0.01%) was additionally applied one week before (2×HePC). After 24 h from the application of the test solutions, the plants were infected with the pathogen causing downy mildew (Plasmopara viticola). Six days after the infection, the sporulation of Plasmopara viticola was induced, and then the infestation intensity was established.\nThus, the percent proportion of the sporulating surface area relative to the entire surface area of each leaf was visually observed. For each substance and concentration, the leaves of at least three plants were evaluated, and the mean value determined. The application of distilled water served as a negative control. The experiment was repeated twice."}, "Plasmopara viticola [2]": {"tested_on": "Plasmopara viticola", "test": "Downy mildew control on Gutedel seedlings", "assay_type": "in vivo, Plasmopara viticola on Gutedel seedlings", "settings": "for Infestation incidence (%) / Infestation intensity (%): evaluated after 10 days", "experimental": "The examinations were performed with seedlings of the variant “Gutedel”, the seedlings having 3-4 leaves and a height of 8-12 cm at the time of application. HePC (0.01 and 0.001%) was applied with a rotary plate automated spraying device (about 1.2 bar spraying pressure) for 20 seconds. For each concentration, 6 plants were treated, which also applied to the positive control (infection, no treatment) and negative control (no infection, no treatment).\nAfter the leaves had dried, the plants were infected/sprayed with Plasmopara viticola (spore suspension (100,000 spores/ml)) and further kept at 21° C. and 100% RH in a cycle of 16 h of day and 8 h of night.\nThe proportion of leaves infested (incidence) and the intensity of infestation, i.e., the infested proportion of the leaf areas, were evaluated."}, "Plasmopara viticola [3]": {"tested_on": "Plasmopara viticola", "test": "Grapevine leaf disk test against downy mildew", "assay_type": "in vivo, Plasmopara viticola on Vitis vinifera cv. Müller-Thurgau", "settings": "for Average infestation intensity: five-point scale 1-5, per experiment; for No. of leaf disks at scale point 1 (no sporulation) / No. of leaf disks at scale point 2 / No. of leaf disks at scale point 3 / No. of leaf disks at scale point 4 / No. of leaf disks at scale point 5 (sporulation all over the surface): six days after infection", "experimental": "Greenhouse plants of the variety Müller-Thurgau (Vitis vinifera cv. Müller-Thurgau) served as the starting material. Young leaves were sterilized on the surface with 70% (v/v) ethanol. Subsequently, leaf disks of 16 mm in diameter were punched out and placed upside down onto water agar (0.8%) in transparent boxes. One drop (about 60 μl) of an aqueous test solution (concentrations employed, see FIG. 1) was applied 24 h before the infection with the pathogen causing downy mildew (Plasmopara viticola), and the leaf disks were incubated at 25° C. (16 h of white light 300 μmol m^−2 s^−1; 8 h of dark) and >95% relative humidity. After 24 h, the drop was removed and replaced by a drop containing spores of the pathogen (about 50 μl of an aqueous suspension containing 2×10^5 sporangia/mil). The infestation intensity was determined six days after the infection.\nThe infestation intensity was determined by means of a five-point scale ranging from 1 (no sporulation) to 5 (sporulation all over the surface). For each substance and concentration, 10 leaf disks per experiment were evaluated, and the mean value from at least three independent parallel experiments was determined. Distilled water and phosphite as negative and positive controls, respectively."}, "[4]": {"tested_on": "pathogen causing downy mildew of grapevine", "test": "Outdoor test in the vineyard under practical conditions", "assay_type": "in vivo, Müller-Thurgau grapevine", "settings": "HePC 0.2%, no artificial infection, status Jun. 19, 2007", "excerpt": "Currently (vegetation period of 2007), HePC (0.2%) is being tested in an outdoor test. In these experiments, the plants in a commercial vineyard (Müller-Thurgau, age about 15 years) are not artificially infected. For this experiment, 3×6 plants (different locations in the vineyard) were employed. In addition, a corresponding untreated control is observed. […] Thus, to date, it has not been possible to observe infestation of the plants treated with HePC, despite of the currently sticky and humid weather (optimum infection conditions) and the very early start of the vegetation period in this year. In contrast, infestation of the control has already been observed."}, "[5]": {"tested_on": "single cell culture of Vitis vinifera cv. Pinot noir", "test": "pH change (alcalinization) in the medium of a single cell culture of grapevine", "assay_type": "cell-based", "excerpt": "A response of plant cells to substances that can induce resistance in plants is to open ion channels in the cell membrane. Thereupon, protons flow into the interior of the cell, which causes alcalinization of the medium surrounding the cell. This temporary alcalinization has been measured.\nGreenhouse plants of the variety Pinot noir (Vitis vinifera cv. Pinot noir) served as the starting material. A callus culture was started first from young shoots. Thus, the plant parts were cut into pieces about 1-2 cm in size, washed in 70% (v/v) ethanol and sterilized in 3.5% (w/v) NaOCl solution for about 2 min. The sterilized tissue pieces were transferred to solid MS nutrient medium (Murashige, T. and Skoog, F., Physiol. Plant, 18: 100-127 (1962)) and slightly pushed into the agar, so that the cuts came into contact with the medium. The formation of callus tissue occurred at 23° C. in a phytochamber (16 h of white light 300 μmol m^−2 s^−1; 8 h of dark; >95% relative humidity). At the cuts, calluses formed, which were repeatedly transferred to a new medium in a sterile manner after 4-6 weeks.\nStarting from strongly growing callus cultures, single cell cultures were started. Thus, cells were passaged under sterile conditions from callus tissue to liquid MS nutrient medium. The cell cultures were grown in a temperature constant room at 23° C. on a rotary shaker (120 rpm). In regular passage cycles of 4 days, the cell cultures were admixed with 40 ml of new liquid MS nutrient medium and distributed in two equal parts of about 40 ml to two 250 ml Erlenmeyer flasks.\nFor measuring the pH of the medium, 10 ml of a 2 days old cell culture was added to a small rolled rim vial. The rolled rim vial was placed onto a shaker, and a pH electrode was immersed into the cell culture. The electrode was fixed to be constantly washed round by the cell culture. The revolutions per minute of the shaker was 140 rpm. After the measured pH had stabilized, the substance to be tested was added, and the change of pH was continuously recorded with a plotter."}, "[6]": {"settings": "HePC 0.05%, infestation frequency"}},
  "note": "Several values for one entry are separate records, joined by “and”; a condition that tells them apart may be missing. Equal entries are not always repeated.",
  "data": [
    {"smiles": "CCCCCCCCCCCCCCCCOP(=O)([O-])OCC[N+](C)(C)C", "note": "[HePC, hexadecylphosphocholine]", "values": [
      {"measurement": "IF (%) per variant", "setting": "Plasmopara viticola [1]; HePC 0.01% applied once, infestation frequency", "result": 53.4, "unit": "%"},
      {"measurement": "II (%) per REP", "setting": "Plasmopara viticola [1]; HePC 0.01% applied once", "result": "1.67% and 2.89% and 4.00%"},
      {"measurement": "II (%) per variant", "setting": "Plasmopara viticola [1]; HePC 0.01% applied once", "result": 2.85, "unit": "%"},
      {"measurement": "RW II IF (%)", "setting": "Plasmopara viticola [1]; HePC 0.01% applied once", "result": "23.6% and 23.56%"},
      {"measurement": "RW II II (%)", "setting": "Plasmopara viticola [1]; HePC 0.01% applied once", "result": "73.2% and 73.16%"},
      {"measurement": "II (%) per REP", "setting": "Plasmopara viticola [1]; HePC 0.01%, 2 x (also applied one week before)", "result": "0.20% and 0.80% and 0.11%"},
      {"measurement": "IF (%) per variant", "setting": "Plasmopara viticola [1]; HePC 0.01%, 2 x, infestation frequency", "result": 23.7, "unit": "%"},
      {"measurement": "II (%) per variant", "setting": "Plasmopara viticola [1]; HePC 0.01%, 2 x", "result": 0.37, "unit": "%"},
      {"measurement": "RW II IF (%)", "setting": "Plasmopara viticola [1]; HePC 0.01%, 2 x", "result": "66.1% and 66.09%"},
      {"measurement": "RW II II (%)", "setting": "Plasmopara viticola [1]; HePC 0.01%, 2 x", "result": "96.5% and 96.51%"},
      {"measurement": "IF (%) per REP", "setting": "Plasmopara viticola [1]; [6]", "result": "33.3% and 44.4%"},
      {"measurement": "IF (%) per variant", "setting": "Plasmopara viticola [1]; [6]", "result": 37.0, "unit": "%"},
      {"measurement": "II (%) per REP", "setting": "Plasmopara viticola [1]; HePC 0.05%", "result": "2.22% and 1.33% and 0.33%"},
      {"measurement": "II (%) per variant", "setting": "Plasmopara viticola [1]; HePC 0.05%", "result": 1.30, "unit": "%"},
      {"measurement": "RW II IF (%)", "setting": "Plasmopara viticola [1]; HePC 0.05%", "result": "47.0% and 47.02%"},
      {"measurement": "RW II II (%)", "setting": "Plasmopara viticola [1]; HePC 0.05%", "result": 87.8, "unit": "%"},
      {"measurement": "IF (%) per variant", "setting": "Plasmopara viticola [1]; HePC 0.1%, infestation frequency", "result": 25.0, "unit": "%"},
      {"measurement": "II (%) per REP", "setting": "Plasmopara viticola [1]; HePC 0.1%", "result": "0.11% and 0.33% and 0.89%"},
      {"measurement": "II (%) per variant", "setting": "Plasmopara viticola [1]; HePC 0.1%", "result": 0.36, "unit": "%"},
      {"measurement": "RW II IF (%)", "setting": "Plasmopara viticola [1]; HePC 0.1%", "result": "64.2% and 64.24%"},
      {"measurement": "RW II II (%)", "setting": "Plasmopara viticola [1]; HePC 0.1%", "result": 96.6, "unit": "%"},
      {"measurement": "infestation increased by a factor", "setting": "Plasmopara viticola [2]; 0.001% HePC compared with 0.01% HePC", "result": 10},
      {"measurement": "Infestation incidence (%)", "setting": "Plasmopara viticola [2]; HePC 0.001%", "result": 43, "unit": "%"},
      {"measurement": "Infestation intensity (%)", "setting": "Plasmopara viticola [2]; HePC 0.001%", "result": 33.9, "unit": "%"},
      {"measurement": "leaves infested as compared to the positive control", "setting": "Plasmopara viticola [2]; HePC 0.01%", "result": 25, "unit": "%"},
      {"measurement": "Infestation incidence (%)", "setting": "Plasmopara viticola [2]; HePC 0.01%", "result": 13, "unit": "%"},
      {"measurement": "Infestation intensity (%)", "setting": "Plasmopara viticola [2]; HePC 0.01%", "result": 3.6, "unit": "%"},
      {"measurement": "Average infestation intensity", "setting": "Plasmopara viticola [3]; HePC 0.0001%", "result": "5.0 and 2.9"},
      {"measurement": "No. of leaf disks at scale point 1 (no sporulation)", "setting": "Plasmopara viticola [3]; HePC 0.0001%", "result": 0},
      {"measurement": "Average infestation intensity", "setting": "Plasmopara viticola [3]; HePC 0.01%", "result": 1.0},
      {"measurement": "No. of leaf disks at scale point 1 (no sporulation)", "setting": "Plasmopara viticola [3]; HePC 0.01%", "result": 9},
      {"measurement": "No. of leaf disks at scale point 2", "setting": "Plasmopara viticola [3]; HePC 0.01%", "result": 0},
      {"measurement": "No. of leaf disks at scale point 3", "setting": "Plasmopara viticola [3]; HePC 0.01%", "result": 0},
      {"measurement": "No. of leaf disks at scale point 4", "setting": "Plasmopara viticola [3]; HePC 0.01%", "result": 0},
      {"measurement": "No. of leaf disks at scale point 5 (sporulation all over the surface)", "setting": "Plasmopara viticola [3]; HePC 0.01%", "result": 0},
      {"measurement": "Average infestation intensity", "setting": "Plasmopara viticola [3]; HePC 0.1%", "result": 1.0},
      {"measurement": "No. of leaf disks at scale point 1 (no sporulation)", "setting": "Plasmopara viticola [3]; HePC 0.1%", "result": 9},
      {"measurement": "No. of leaf disks at scale point 2", "setting": "Plasmopara viticola [3]; HePC 0.1%", "result": 0},
      {"measurement": "No. of leaf disks at scale point 3", "setting": "Plasmopara viticola [3]; HePC 0.1%", "result": 0},
      {"measurement": "No. of leaf disks at scale point 4", "setting": "Plasmopara viticola [3]; HePC 0.1%", "result": 0},
      {"measurement": "No. of leaf disks at scale point 5 (sporulation all over the surface)", "setting": "Plasmopara viticola [3]; HePC 0.1%", "result": 0},
      {"measurement": "prevention of pathogen infestation", "setting": "[4]", "result": "good effect"},
      {"measurement": "Δ (pH)", "setting": "[5]; HePC final concentration 0.00025%", "result": 0.03},
      {"measurement": "Δ (pH)", "setting": "[5]; HePC final concentration 0.00050%", "result": 0.16},
      {"measurement": "Δ (pH)", "setting": "[5]; HePC final concentration 0.00075%", "result": 0.25},
      {"measurement": "Δ (pH)", "setting": "[5]; HePC final concentration 0.00100% (w/v)", "result": 0.41}
    ]}
  ]
}
